Test results from patent publication US11820762B2, “Compounds as potential therapeutic agents targeting various neurodegenerative diseases” (The Hong Kong University of Science and Technology, priority 2020, dated 2023).

Key:
[1] = test system: GMR-GAL4-(G4C2)29 Drosophila; experiment: Drosophila feeding and external eye assay; format: in vivo; conditions: 100 μM in solid food during larval stage; day 7 after eclosion
Procedure: A fly line expressing 29 GGGGCC repeats (29R) (SEQ ID NO: 6), under the GMR-GAL4 promoter (GMR-GAL4-(G4C2)29 (SEQ ID NO: 6)), was used. Both GMR-GAL4-(G4C2)29 (SEQ ID NO: 6) and WT flies were raised at room temperature (25° C.) on a cornmeal medium supplemented with dry yeast. […] Parent flies for cross were set in solid food containing testing compound, and F1 larvae were thus fed with food continuously until eclosion. After eclosion, F1 flies were transferred to normal food containers without compounds.
Eye images of GMR-GAL4-(G4C2)29 (SEQ ID NO: 6) or WT adult flies at day 7 after eclosion were captured using a CCD camera on an Olympus stereomicroscope. Eye morphologies of flies in different treatment groups were compared to evaluate the retina degeneration level. The affected eye area and total eye area were measured to calculate the degeneration ratio by ImageJ.
We next treated WT Drosophila and Drosophila with GMR-GAL4 driver promoted expression of (G4C2)29-repeats (SEQ ID NO: 6) (GMR-GAL4-(G4C2)29) (SEQ ID NO: 6) with cA or cC by feeding larvae with compounds in solid food. DMSO was used as a negative control. The eyes of day 7 adult Drosophila with GMR-GAL4-(G4C2)29 (SEQ ID NO: 6) were much rougher than the same age WT fly, indicating eye degeneration (FIG. 8E). The affected eye degeneration area accounted for over 50% of the whole eye (FIG. 8F).

[2] = test system: human telomeric htel23 G4; experiment: 1D 1H-NMR titration of human telomeric htel23 G4; format: binding; conditions: 1:10 titration
Procedure: (§1) Single […] were purchased from Integrated DNA Technologies (IDT) and Takara. Single-strand DNA/RNA sample at 100 μM was then annealed by heating up to 95° C. for 15 mins, and slowly cooled to room temperature in the annealing buffer (70 mM KCl, 20 mM potassium phosphate (pH 7.0)) for overnight. The final NMR samples contained 0.1 mM DNA or RNA in 70 mM KCl and 20 mM potassium phosphate buffer (pH 7.0).
(§2) The 1D ^1H-NMR spectra were performed at 25° C. All compounds were dissolved in isotope-labeled d6-DMSO (Sigma-Aldrich) at about 50 mM concentration, working as stock solutions. To avoid chemical shift changes of DNA/RNA G4 resulted from d6-DMSO addition, […] d6-DMSO was added into 500 μL of 0.1 mM DNA/RNA G4 solution in the NMR buffer (20 mM potassium phosphate buffer and 70 mM KCl, pH 7.0, 10% D2O) and then 1D ^1H-NMR spectrum was recorded as a reference. During NMR titration experiments of adding each compound into the DNA/RNA G4 solution, the maximal volume of 10 μL of each compound in d6-DMSO solution was regarded as a final data point.
(§3) In addition to the four-repeat G4C2 DNA G4, there are parallel and hybrid G4 conformations formed simultaneously by the two-repeat G4C2 DNA^38,39. […]

Neuro2a cells = experiment: Permeability on live cells (cell lysates analysed by UPLC-MS); format: in vitro ADME; conditions: 10, 20 μg/ml; 24 h, 48 h; UPLC-MS of lysates
Procedure: (§4) In addition, we also tested the permeability on live cells. Neuro2a cells treated with cA at different concentrations (10 μg/ml, 20 μg/ml) for different incubation time (24 h, 48 h) were lysed. Supernatants of cell lysates were collected and analyzed by UPLC-MS. Meanwhile, cell media from different treatment groups were used as control. […] In contrast, the intensity of cA signal was the same in the three corresponding cell media groups (FIG. 25, 4-6).

[3] = test system: human telomeric variant htel21_T18 G4; experiment: 1D 1H-NMR titration of human telomeric variant htel21_T18 G4; format: binding; conditions: cA at 1:10
Procedure: as §1, §2, §3

[4] = test system: DNA (G4C2)2 (SEQ ID NO: 4) G4; experiment: 1D 1H-NMR titration of DNA (G4C2)2 G4; format: binding; conditions: cA at 1:1, 1:5, 1:10
Procedure: as §1, §2, §3

[5] = test system: RNA (G4C2)2 (SEQ ID NO: 8) G4; experiment: 1D 1H-NMR titration of RNA (G4C2)2 G4; format: binding; conditions: ratios 1:3, 1:5, 1:10
Procedure: as §1
as §2, with “point. […]” for “point.”

[6] = test system: DNA G-quadruplex formed by chicken DNA replication origin; experiment: 1D 1H-NMR titration of chicken DNA G-quadruplex; format: binding; conditions: 1:3 titration
Procedure: as §1, §2, §3

[7] = Parallel artificial membrane permeability assay (PAMPA); format: in vitro ADME; conditions: PAMPA
Procedure: 500 μL of 500 μM test compound and 200 μM Equilibrium Standards for each test compound were prepared. 5 μL DMSO plus 245 μL PBS served as blank control. Firstly, 300 μL PBS was added to each well in the acceptor plate. With the donor plate in its tray, 5 μL 4% Lecithin in Dodecane was added directly to the well membranes of the donor plate. 200 μL of each 500 μM test compound was added to duplicate wells of the donor plate. The donor plate was carefully placed into the acceptor plate wells and incubated at 37° C. for 18 hours. Then the liquid in acceptor plate wells was collected as Acceptor Solution for analysis. Absorbance spectrum from 200 nm to 500 nm in 10 nm intervals was read to determine the peak absorbance of test compounds and blank control.
as §4

SMILES | eye degeneration phenotype [1] | binding to htel23 G4 by NMR titration [2] | entry into live cells (Neuro2a cells) | binding to htel21_T18 G4 by NMR titration [3] | binding to DNA (G4C2)2 G4 by NMR titration [4] | binding to RNA (G4C2)2 G4 by NMR titration [5] | binding to chicken DNA G-quadruplex by NMR titration [6] | permeability (PAMPA) [7]
CC(=O)Cc1cc2c(c(O)c1C(=O)O)-c1c(c(O)c3oc4c(O[C@@H]5OC(C(=O)O)=C[C@H](O)[C@H]5O)cccc4c(=O)c3c1O)CC2 [cA, chrexanthomycin A] | significantly rescuing the eye degeneration phenotype | no obvious chemical shift changes | could penetrate cell membrane and enter into cells | no obvious chemical shift changes | neither with 1:1 (light brown), 1:5 (blue) nor 1:10 (pink) titration of cA made significant chemical shift changes | Chemical shift changes were observed | did not show binding | 
CC(=O)Cc1cc2c(c(O)c1C(=O)O)-c1c(c(O)c3oc4c(O[C@@H]5O[C@H](C(=O)O)[C@@H](O)[C@H](O)[C@H]5O)cccc4c(=O)c3c1O)CC2 [cC, chrexanthomycin C] | significantly rescuing the eye degeneration phenotype |  |  |  |  |  |  | good permeability
